Earlier results in US20140031355A1, “HETEROCYCLIC COMPOUNDS AND THEIR USES” (Amgen Inc., priority 2010, published 2014).

Columns and labels:
[1] = tested on: rheumatoid arthritis model; settings: in vivo
[2] = tested on: systemic lupus erythematosis model; settings: in vivo
p110δ = target: T1, p110δ (Homo sapiens, UniProt O00329)
T1 sequence (O00329 1-1044): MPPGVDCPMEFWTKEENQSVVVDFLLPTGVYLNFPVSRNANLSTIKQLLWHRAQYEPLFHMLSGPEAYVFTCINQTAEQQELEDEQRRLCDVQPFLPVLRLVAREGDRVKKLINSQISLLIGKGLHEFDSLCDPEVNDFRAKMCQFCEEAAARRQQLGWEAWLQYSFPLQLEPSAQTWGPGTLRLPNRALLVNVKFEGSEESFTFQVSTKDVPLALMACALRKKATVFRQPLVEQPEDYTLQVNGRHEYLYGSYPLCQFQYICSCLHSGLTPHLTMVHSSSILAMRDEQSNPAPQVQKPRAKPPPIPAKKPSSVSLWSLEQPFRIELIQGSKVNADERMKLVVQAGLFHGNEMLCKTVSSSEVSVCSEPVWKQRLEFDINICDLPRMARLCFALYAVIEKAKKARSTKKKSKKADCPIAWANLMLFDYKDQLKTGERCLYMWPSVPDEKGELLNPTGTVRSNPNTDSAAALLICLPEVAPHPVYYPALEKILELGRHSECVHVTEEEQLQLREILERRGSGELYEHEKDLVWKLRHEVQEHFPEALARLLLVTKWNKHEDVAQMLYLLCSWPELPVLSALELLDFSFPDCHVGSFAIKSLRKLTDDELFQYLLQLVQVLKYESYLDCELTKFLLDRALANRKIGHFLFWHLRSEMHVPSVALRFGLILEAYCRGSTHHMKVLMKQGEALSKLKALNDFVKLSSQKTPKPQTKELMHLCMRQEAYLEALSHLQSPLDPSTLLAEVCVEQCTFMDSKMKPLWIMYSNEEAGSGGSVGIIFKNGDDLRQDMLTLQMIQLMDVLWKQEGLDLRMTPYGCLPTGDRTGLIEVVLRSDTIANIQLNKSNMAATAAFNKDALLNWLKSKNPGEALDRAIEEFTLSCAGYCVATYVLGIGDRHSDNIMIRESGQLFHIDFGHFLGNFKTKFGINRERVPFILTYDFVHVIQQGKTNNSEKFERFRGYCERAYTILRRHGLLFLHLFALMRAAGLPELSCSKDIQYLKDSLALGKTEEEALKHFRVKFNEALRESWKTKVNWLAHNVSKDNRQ

[3] = tested on: passive cutaneous anaphylaxis (PCA); settings: absence of functional delta (IC 87114 and p110δ D910A mice)
[4] = tested on: ovalbumin-induced airway inflammation

O=C1NC(=O)/C(=C\c2ccc3nccnc3c2)S1 [AS 605240]
efficacy in a mouse model of rheumatoid arthritis [1]: efficacious
onset of disease in a model of systemic lupus erythematosis [2]: delay onset of disease

Cc1ccccc1-n1c(Cn2cnc3c(N)ncnc32)nc2cccc(C)c2c1=O [IC87114]
activity against any protein kinases tested (protein kinases): no activity
inhibits p110δ (p110δ): high nanomolar range (triple digit)
passive cutaneous anaphylaxis (PCA) [3]: significantly reduced
inflammation and disease in a murine model of asthma [4]: significantly ameliorate
